Columns and labels:
Vasopressin V1a receptor = Vasopressin V1a receptor (Homo sapiens, UniProt P37288)
[1] = biological target: Muscarinic acetylcholine receptor M3 (Homo sapiens, UniProt P20309)
Endothelin-1 receptor = biological target: T1, Endothelin-1 receptor (Homo sapiens, UniProt P25101)
T1 sequence (P25101 whole entry): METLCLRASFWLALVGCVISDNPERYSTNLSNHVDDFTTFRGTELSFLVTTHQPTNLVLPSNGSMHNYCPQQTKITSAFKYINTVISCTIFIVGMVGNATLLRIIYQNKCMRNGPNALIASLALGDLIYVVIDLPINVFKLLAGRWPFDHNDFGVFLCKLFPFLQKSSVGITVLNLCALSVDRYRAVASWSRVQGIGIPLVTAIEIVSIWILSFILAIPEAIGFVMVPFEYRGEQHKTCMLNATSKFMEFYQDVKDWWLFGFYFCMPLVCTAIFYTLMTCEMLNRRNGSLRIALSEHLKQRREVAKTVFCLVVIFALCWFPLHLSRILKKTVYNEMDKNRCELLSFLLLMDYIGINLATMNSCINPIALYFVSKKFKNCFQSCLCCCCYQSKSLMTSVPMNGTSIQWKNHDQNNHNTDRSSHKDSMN

Mu-type opioid receptor [2] = biological target: T2, Mu-type opioid receptor (Homo sapiens, UniProt P35372); test: biochemical; type: functional
[3] = biological target: T3, Muscarinic acetylcholine receptor M1 (Homo sapiens, UniProt P11229); type: functional
T3 sequence (P11229 whole entry): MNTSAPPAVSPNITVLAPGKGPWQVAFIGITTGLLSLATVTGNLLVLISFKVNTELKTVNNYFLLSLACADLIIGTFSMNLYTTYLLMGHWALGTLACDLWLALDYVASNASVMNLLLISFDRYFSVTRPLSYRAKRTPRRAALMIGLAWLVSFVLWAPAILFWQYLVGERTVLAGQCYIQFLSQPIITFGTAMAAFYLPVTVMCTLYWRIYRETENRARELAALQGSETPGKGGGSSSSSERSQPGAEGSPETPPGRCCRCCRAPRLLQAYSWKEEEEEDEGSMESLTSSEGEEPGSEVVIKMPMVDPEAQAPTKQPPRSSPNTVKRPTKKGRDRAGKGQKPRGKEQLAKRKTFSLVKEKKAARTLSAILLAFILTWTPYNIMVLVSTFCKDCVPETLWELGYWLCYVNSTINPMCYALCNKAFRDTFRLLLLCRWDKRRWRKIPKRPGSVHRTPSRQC

Androgen receptor = biological target: T4, Androgen receptor (Rattus norvegicus, UniProt P15207); type: functional
T4 sequence (P15207 whole entry): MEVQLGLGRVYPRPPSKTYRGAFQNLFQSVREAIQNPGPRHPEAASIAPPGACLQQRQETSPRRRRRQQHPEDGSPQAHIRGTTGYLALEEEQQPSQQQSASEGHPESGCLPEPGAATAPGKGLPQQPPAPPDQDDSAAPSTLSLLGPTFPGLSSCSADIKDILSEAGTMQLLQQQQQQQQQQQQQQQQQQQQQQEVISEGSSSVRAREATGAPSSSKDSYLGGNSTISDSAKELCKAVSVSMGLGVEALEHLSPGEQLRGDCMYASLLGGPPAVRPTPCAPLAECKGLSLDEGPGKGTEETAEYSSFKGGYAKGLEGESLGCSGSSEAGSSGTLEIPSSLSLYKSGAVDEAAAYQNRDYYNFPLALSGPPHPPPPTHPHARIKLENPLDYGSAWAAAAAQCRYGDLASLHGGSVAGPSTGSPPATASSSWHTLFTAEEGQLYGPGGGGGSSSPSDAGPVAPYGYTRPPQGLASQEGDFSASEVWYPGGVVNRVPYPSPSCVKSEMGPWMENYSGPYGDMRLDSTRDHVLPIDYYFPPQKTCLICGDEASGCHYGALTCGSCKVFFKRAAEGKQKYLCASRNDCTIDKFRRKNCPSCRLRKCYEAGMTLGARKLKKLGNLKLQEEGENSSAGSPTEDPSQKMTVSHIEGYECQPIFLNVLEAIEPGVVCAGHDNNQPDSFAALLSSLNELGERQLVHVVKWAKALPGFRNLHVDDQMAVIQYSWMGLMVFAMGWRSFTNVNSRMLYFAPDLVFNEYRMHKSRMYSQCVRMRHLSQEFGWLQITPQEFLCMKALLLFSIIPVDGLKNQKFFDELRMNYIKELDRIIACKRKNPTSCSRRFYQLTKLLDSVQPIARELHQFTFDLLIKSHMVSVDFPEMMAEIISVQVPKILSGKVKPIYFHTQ

[4] = biological target: Beta-2 adrenergic receptor (Homo sapiens, UniProt P07550)
[5] = biological target: T5, Gastrin/cholecystokinin type B receptor (Homo sapiens, UniProt P32239)
T5 sequence (P32239 whole entry): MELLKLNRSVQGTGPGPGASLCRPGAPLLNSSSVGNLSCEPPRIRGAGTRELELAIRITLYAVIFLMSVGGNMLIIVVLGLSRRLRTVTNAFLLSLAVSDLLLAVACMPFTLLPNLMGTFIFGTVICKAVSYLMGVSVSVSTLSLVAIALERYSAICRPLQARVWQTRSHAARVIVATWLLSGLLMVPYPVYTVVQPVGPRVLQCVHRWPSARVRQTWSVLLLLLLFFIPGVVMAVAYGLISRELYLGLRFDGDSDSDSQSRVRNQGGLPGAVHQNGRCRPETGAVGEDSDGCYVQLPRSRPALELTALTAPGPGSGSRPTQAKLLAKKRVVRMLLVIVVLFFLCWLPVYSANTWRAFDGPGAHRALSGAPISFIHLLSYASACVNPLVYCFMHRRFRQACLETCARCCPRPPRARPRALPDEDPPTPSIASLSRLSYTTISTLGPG

[6] = biological target: T6, 5-hydroxytryptamine receptor 2A (Homo sapiens, UniProt P28223); type: functional, cell-based
Histamine H1 receptor = Histamine H1 receptor (Homo sapiens, UniProt P35367)
[7] = biological target: Sodium-dependent serotonin transporter (Homo sapiens, UniProt P31645)
[8] = biological target: T6, 5-hydroxytryptamine receptor 2A; type: functional, cell-based; remark: listed apart in the source
Histamine H3 receptor = Histamine H3 receptor (Homo sapiens, UniProt Q9Y5N1)
Melanocortin receptor 4 = Melanocortin receptor 4 (Homo sapiens, UniProt P32245)
Mu-type opioid receptor [9] = biological target: T2, Mu-type opioid receptor
[10] = biological target: Gamma-aminobutyric acid receptor subunit alpha-1/alpha-2/beta-2/gamma-2 (Homo sapiens, UniProt P14867+P18507+P47869+P47870); type: functional, cell-based
Also: assay procedure not described here.

Histamine H1 receptor, sequence (P35367 whole entry): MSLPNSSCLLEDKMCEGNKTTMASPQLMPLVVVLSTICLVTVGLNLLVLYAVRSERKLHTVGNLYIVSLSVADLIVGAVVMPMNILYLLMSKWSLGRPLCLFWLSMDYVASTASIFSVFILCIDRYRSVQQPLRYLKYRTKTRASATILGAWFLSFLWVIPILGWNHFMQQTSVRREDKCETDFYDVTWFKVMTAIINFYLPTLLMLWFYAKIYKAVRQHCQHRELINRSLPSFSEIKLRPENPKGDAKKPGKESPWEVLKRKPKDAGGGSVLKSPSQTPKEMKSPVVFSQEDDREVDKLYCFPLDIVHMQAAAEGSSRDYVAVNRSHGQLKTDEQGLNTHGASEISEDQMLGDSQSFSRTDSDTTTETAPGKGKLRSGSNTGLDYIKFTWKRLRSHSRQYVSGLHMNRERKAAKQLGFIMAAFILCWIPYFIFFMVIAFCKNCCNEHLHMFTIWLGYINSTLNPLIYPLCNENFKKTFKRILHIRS
Sodium-dependent serotonin transporter, sequence (P31645 whole entry): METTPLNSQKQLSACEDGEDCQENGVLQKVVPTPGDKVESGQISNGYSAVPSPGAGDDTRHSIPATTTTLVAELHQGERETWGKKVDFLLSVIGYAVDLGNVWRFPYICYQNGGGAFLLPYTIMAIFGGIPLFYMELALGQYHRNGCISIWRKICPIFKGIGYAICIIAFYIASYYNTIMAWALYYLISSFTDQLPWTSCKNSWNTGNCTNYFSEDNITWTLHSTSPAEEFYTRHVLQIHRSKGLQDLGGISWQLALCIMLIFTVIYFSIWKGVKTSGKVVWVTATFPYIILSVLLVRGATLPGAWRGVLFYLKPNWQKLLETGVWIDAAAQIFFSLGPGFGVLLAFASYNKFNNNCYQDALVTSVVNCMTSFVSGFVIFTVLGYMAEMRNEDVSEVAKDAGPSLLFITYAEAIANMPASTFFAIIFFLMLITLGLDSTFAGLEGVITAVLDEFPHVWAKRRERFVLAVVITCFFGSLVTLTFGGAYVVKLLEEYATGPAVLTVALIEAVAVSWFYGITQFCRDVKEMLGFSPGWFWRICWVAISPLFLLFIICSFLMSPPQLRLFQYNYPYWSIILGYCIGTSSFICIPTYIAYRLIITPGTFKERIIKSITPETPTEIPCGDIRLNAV
Histamine H3 receptor, sequence (Q9Y5N1 whole entry): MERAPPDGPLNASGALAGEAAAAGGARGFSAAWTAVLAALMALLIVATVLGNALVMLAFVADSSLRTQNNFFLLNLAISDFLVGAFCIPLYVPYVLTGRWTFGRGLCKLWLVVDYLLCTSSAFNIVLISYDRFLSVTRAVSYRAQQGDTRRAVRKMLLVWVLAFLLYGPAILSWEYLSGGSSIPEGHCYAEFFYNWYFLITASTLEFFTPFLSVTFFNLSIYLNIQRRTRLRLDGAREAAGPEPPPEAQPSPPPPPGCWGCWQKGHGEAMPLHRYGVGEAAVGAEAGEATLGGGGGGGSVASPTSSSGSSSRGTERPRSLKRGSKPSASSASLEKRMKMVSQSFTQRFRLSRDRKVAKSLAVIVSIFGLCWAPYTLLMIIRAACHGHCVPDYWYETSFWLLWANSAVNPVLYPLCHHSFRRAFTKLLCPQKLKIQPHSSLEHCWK
T6 sequence (P28223 whole entry): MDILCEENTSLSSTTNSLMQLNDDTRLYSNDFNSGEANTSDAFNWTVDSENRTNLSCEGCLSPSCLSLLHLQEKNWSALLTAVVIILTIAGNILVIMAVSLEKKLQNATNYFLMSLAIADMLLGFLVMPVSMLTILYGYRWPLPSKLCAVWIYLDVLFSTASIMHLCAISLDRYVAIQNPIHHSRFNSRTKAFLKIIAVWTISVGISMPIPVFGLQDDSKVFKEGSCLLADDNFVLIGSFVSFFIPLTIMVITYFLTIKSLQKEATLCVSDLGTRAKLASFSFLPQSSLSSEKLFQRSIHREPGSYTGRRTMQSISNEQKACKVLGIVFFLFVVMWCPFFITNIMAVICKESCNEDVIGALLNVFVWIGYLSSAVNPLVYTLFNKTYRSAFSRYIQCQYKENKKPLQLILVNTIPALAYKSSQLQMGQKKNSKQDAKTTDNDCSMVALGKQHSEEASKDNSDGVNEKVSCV
Gamma-aminobutyric acid receptor subunit alpha-1/alpha-2/beta-2/gamma-2, sequence (P14867 whole entry): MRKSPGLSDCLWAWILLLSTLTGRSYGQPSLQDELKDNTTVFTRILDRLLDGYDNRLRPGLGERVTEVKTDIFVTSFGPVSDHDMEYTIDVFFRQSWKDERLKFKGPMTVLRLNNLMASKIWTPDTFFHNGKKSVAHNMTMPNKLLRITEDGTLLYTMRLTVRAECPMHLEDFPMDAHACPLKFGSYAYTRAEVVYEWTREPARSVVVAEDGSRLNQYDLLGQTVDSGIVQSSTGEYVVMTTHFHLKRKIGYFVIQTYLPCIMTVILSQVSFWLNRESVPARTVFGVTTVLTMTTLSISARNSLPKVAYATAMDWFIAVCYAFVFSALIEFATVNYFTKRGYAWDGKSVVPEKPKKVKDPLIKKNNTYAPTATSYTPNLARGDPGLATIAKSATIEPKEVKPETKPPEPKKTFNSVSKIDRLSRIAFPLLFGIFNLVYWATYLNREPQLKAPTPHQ
Gamma-aminobutyric acid receptor subunit alpha-1/alpha-2/beta-2/gamma-2, sequence (P47870 whole entry): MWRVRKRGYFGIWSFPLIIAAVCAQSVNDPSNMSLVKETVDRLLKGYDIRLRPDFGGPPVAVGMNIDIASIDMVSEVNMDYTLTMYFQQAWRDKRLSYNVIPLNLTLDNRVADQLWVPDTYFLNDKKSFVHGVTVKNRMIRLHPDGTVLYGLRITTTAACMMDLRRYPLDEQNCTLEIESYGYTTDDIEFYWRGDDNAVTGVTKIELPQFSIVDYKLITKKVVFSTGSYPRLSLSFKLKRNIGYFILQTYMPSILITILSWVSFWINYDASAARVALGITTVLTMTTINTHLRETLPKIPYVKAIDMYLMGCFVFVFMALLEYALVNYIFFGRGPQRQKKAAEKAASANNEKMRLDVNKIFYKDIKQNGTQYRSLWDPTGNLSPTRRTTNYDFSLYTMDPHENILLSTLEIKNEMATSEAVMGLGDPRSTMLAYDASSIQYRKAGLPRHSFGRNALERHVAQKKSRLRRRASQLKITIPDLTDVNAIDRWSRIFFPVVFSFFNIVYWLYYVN
Gamma-aminobutyric acid receptor subunit alpha-1/alpha-2/beta-2/gamma-2, sequence (P18507 whole entry): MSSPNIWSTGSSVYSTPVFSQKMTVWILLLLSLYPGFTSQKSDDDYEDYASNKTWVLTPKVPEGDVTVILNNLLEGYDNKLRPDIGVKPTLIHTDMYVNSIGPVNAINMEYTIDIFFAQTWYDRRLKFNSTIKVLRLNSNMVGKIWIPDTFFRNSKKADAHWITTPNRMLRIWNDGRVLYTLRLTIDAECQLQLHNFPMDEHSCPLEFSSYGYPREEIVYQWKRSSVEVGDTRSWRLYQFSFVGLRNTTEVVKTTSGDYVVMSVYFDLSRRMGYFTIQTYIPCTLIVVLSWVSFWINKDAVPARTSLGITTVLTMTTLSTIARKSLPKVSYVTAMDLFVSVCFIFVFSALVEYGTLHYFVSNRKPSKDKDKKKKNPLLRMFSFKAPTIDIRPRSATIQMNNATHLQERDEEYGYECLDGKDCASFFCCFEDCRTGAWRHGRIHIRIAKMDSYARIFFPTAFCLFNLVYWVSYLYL
Gamma-aminobutyric acid receptor subunit alpha-1/alpha-2/beta-2/gamma-2, sequence (P47869 whole entry): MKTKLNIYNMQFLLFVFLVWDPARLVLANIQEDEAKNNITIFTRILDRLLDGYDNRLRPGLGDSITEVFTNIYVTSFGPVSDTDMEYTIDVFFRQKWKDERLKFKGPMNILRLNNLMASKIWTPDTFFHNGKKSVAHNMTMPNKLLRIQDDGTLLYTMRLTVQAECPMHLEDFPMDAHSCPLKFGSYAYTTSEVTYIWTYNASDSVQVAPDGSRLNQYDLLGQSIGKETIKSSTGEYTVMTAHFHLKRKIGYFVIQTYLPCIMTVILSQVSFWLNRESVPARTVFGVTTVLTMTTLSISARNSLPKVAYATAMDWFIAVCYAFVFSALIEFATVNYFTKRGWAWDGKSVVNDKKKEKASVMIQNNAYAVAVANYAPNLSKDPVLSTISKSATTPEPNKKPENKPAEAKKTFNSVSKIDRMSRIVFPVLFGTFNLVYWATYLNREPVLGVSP
Melanocortin receptor 4, sequence (P32245 whole entry): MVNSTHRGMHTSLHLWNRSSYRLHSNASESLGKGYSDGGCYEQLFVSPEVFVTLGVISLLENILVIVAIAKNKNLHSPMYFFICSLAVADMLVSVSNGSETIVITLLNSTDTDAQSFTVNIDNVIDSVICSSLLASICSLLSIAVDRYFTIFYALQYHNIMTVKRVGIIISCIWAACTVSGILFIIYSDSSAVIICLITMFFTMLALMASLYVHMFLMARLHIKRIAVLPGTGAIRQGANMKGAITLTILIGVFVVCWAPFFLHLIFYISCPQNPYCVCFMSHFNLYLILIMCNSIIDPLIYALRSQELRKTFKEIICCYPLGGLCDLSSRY
Vasopressin V1a receptor, sequence (P37288 whole entry): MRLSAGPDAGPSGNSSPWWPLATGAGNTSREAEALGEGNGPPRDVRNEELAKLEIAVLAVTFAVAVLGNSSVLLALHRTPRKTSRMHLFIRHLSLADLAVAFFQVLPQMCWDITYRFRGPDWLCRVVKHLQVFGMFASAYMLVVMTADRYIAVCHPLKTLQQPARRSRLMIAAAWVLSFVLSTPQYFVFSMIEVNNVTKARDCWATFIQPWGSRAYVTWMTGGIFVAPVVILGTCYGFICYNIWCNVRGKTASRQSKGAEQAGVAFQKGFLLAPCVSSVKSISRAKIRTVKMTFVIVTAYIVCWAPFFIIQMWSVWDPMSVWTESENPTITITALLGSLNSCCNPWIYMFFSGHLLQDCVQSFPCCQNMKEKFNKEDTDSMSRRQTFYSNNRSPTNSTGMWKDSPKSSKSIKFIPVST

Row | Compound | AC50 (Vasopressin V1a receptor) [µM] | AC50 [1] [µM] | AC50 (Endothelin-1 receptor) [µM] | AC50 (Mu-type opioid receptor [2]) [µM] | AC50 [3] [µM] | AC50 (Androgen receptor) [µM] | AC50 [4] [µM] | AC50 [5] [µM] | AC50 [6] [µM] | AC50 (Histamine H1 receptor) [µM] | AC50 [7] [µM] | AC50 [8] [µM] | AC50 (Histamine H3 receptor) [µM] | AC50 (Melanocortin receptor 4) [µM] | AC50 (Mu-type opioid receptor [9]) [µM] | AC50 [10] [µM]
1 | O=C1C(O)=C([C@H]2CC[C@H](c3ccc(Cl)cc3)CC2)C(=O)c2ccccc21 [ATOVAQUONE] | > 30 | > 30 | > 30 | > 30 | > 30 | > 30 | > 30 | > 30 | > 30 | > 30 | > 30 | > 30 | > 30 | – | – | –
2 | COc1ccc(CCNCC(O)COc2cccc(C)c2)cc1OC (stereo unspecified) [BEVANTOLOL] | > 10 | > 30 | – | > 30 | > 10 | – | – | – | > 10 | > 10 | 3 | > 10 | – | > 10 | > 10 | –
3 | Brc1c(NC2=NCCN2)ccc2nccnc12 [BRIMONIDINE] | – | – | > 30 | > 30 | – | – | – | > 30 | – | – | – | – | > 30 | – | – | > 30
4 | CC(CC1c2ccccc2CCc2ccccc21)CN(C)C (stereo unspecified) [BUTRIPTYLINE] | – | 1.4 | – | – | 0.23 | – | – | – | 15 | 0.015 | – | > 30 | – | – | – | > 30
5 | CC(C)(C)NCC(O)COc1cccc2c1CCC(=O)N2 (stereo unspecified) [CARTEOLOL] | > 10 | > 30 | – | – | > 10 | – | – | – | > 10 | > 10 | > 10 | > 10 | – | > 10 | > 30 | –
6 | Nc1nc(Cl)nc2c1ncn2[C@H]1C[C@H](O)[C@@H](CO)O1 [CLADRIBINE] | – | – | > 30 | > 30 | – | – | – | > 30 | – | – | – | – | > 30 | – | – | > 30
7 | Clc1ccccc1C(c1ccccc1)(c1ccccc1)n1ccnc1 [CLOTRIMAZOLE] | – | – | – | – | – | – | 15 | – | – | – | – | – | > 10 | – | – | –
8 | COc1ccc2c3c1O[C@H]1[C@@H](O)CC[C@H]4[C@@H](C2)N(C)CC[C@@]341 [DIHYDROCODEINE] | – | > 30 | – | – | > 30 | – | – | – | > 30 | > 30 | – | > 30 | – | – | – | > 30
9 | NC(=O)OCC(COC(N)=O)c1ccccc1 [FELBAMATE] | > 10 | > 30 | – | – | > 10 | – | > 10 | – | > 10 | > 10 | > 10 | > 10 | – | > 10 | > 30 | –
10 | Fc1ccc(C(c2ccccc2)(c2ccccc2F)n2ccnc2)cc1 (stereo unspecified) [FLUTRIMAZOLE] | > 30 | > 30 | > 30 | > 30 | > 30 | > 30 | > 30 | 25 | > 30 | > 30 | > 30 | > 30 | > 30 | – | – | –
11 | Cc1c(OCC(F)(F)F)ccnc1C[S+]([O-])c1nc2ccccc2[nH]1 (stereo unspecified) [LANSOPRAZOLE] | > 10 | – | > 30 | 4.2 | – | – | > 10 | 22 | – | – | – | – | – | > 30 | 4 | –
12 | NC(=O)CN1CC(O)CC1=O (stereo unspecified) [OXIRACETAM] | > 30 | > 30 | > 30 | > 30 | > 30 | > 30 | – | > 30 | > 30 | > 30 | > 30 | > 30 | > 30 | – | – | > 30
13 | Cc1cc(C(C)(C)C)c(O)c(C)c1CC1=NCCN1 [OXYMETAZOLINE] | – | – | – | – | – | > 30 | – | – | – | – | – | – | – | – | > 30 | > 30
14 | C[C@H]1COc2c(C3(N)CC3)c(F)cc3c(=O)c(C(=O)O)cn1c23 [PAZUFLOXACIN] | > 10 | > 30 | – | – | > 10 | – | > 10 | – | > 10 | > 10 | > 10 | > 10 | – | > 10 | > 30 | –
15 | C[C@@H]1O[C@@H](O[C@@H]2C=C3CC[C@@H]4[C@H](CC[C@]5(C)[C@@H](c6ccc(=O)oc6)CC[C@]45O)[C@@]3(C)CC2)[C@H](O)[C@H](O)[C@H]1O [PROSCILLARIDIN] | – | – | > 30 | > 30 | – | > 30 | – | > 30 | – | – | – | – | > 30 | – | – | –
16 | CC/C(=C(\c1ccccc1)c1ccc(OCCN(C)C)cc1)c1ccccc1 [TAMOXIFEN] | – | – | – | – | – | – | 13.6 | – | – | – | – | – | > 30 | – | > 30 | –
17 | C#C[C@]1(O)CC[C@H]2[C@@H]3[C@H](C)CC4=C(CCC(=O)C4)[C@H]3CC[C@@]21C [TIBOLONE] | – | – | > 30 | > 30 | – | – | – | > 30 | – | – | – | – | > 30 | – | – | –
18 | COc1cccc(C2(O)CCCCC2CN(C)C)c1 (stereo unspecified) [TRAMADOL] | > 10 | – | > 30 | – | – | – | > 10 | > 30 | – | – | – | – | > 10 | > 30 | – | –
19 | Cc1nnc2n1-c1ccc(Cl)cc1C(c1ccccc1Cl)=NC2 [TRIAZOLAM] | > 30 | > 30 | – | – | > 10 | – | > 10 | > 30 | > 30 | > 10 | > 30 | > 30 | > 10 | > 30 | > 30 | –
20 | CC1(C)CCC(CN2CCN(c3ccc(C(=O)NS(=O)(=O)c4ccc(NCC5CCOCC5)c([N+](=O)[O-])c4)c(Oc4cnc5[nH]ccc5c4)c3)CC2)=C(c2ccc(Cl)cc2)C1 [VENETOCLAX] | – | – | – | – | > 30 | > 30 | – | – | – | > 30 | > 30 | – | – | – | – | –
